In patent publication US4034092A, “7-Acyl-3-(carboxyalkyl and carbamoylalkyl substituted oxadiazolylthiomethyl) cephalosporins” (SmithKline Corporation, priority 1976, dated 1977):
≈ marks a conversion by molar mass, not a printed value. Read-outs that look alike come from different tables or passages of the source.

Columns and labels:
S. aureus HH 125 = assay: in vitro MIC testing, S. aureus HH 125; format: cell-based; conditions: Staphylococcus aureus, HH125
Description: (§1) The compounds of Formula I have exceptional antibacterial activity against both Gram-positive and Gram-negative organisms. Minimum inhibitory concentrations (MIC's) range from 0.2 to >200 μg./ml. in in vitro testing. Test results for the compound 7-D-mandelamido-3-(5-carboxymethyl-1,3,4-oxadiazol-2-ylthiomethyl)-3-cephem-4-carboxylic acid and its disodium salt, respectively, are given below: […]

S. aureus SK 23390 = assay: in vitro MIC testing, S. aureus SK 23390; format: cell-based; conditions: Staphylococcus aureus, SK23390
Description: as §1

S. villaluz SK 70390 = assay: in vitro MIC testing, S. villaluz SK 70390; format: cell-based
Description: as §1

Strep. faecalis HH 34358 = assay: in vitro MIC testing, Strep. faecalis HH 34358; format: cell-based; conditions: Enterococcus faecalis, HH34358
Description: as §1

E. coli SK 12140 = assay: in vitro MIC testing, E. coli SK 12140; format: cell-based; conditions: Escherichia coli, SK12140
Description: as §1

E. coli HH 33779 = assay: in vitro MIC testing, E. coli HH 33779; format: cell-based; conditions: Escherichia coli, HH33779
Description: as §1

Kleb. pneumo. SK 1200 = assay: in vitro MIC testing, Kleb. pneumo. SK 1200; format: cell-based
Description: as §1

Salmonella ATCC 12176 = assay: in vitro MIC testing, Salmonella ATCC 12176; format: cell-based; conditions: ATCC12176
Description: as §1

Shigella HH 117 = assay: in vitro MIC testing, Shigella HH 117; format: cell-based; conditions: HH117
Description: as §1

Pseudo. aerug. HH 63 = assay: in vitro MIC testing, Pseudo. aerug. HH 63; format: cell-based
Description: as §1

[1] = system: Serratia marc. ATCC 13880; assay: in vitro MIC testing, Serratia marc. ATCC 13880; format: cell-based; conditions: ATCC13880
Description: as §1

Kleb. pneumo. SK 4200 = assay: in vitro MIC testing, Kleb. pneumo. SK 4200; format: cell-based
Description: as §1

Proteus morgani 179 = assay: in vitro MIC testing, Proteus morgani 179; format: cell-based
Description: as §1

[2] = system: Entero. aerog. ATCC 13048; assay: in vitro MIC testing, Entero. aerog. ATCC 13048; format: cell-based
Description: as §1

Entero. cloacae HH 31254 = assay: in vitro MIC testing, Entero. cloacae HH 31254; format: cell-based; conditions: Enterobacter cloacae, HH31254
Description: as §1

E. coli 12140 = assay: in vivo mouse protection test, E. coli 12140; conditions: Escherichia coli, sc; subcutaneous injection; against E. coli 12140
Source text: (§2) 4200 upon subcutaneous injection.

Kleb. pneumo. 4200 = assay: in vivo mouse protection test, Kleb. pneumo. 4200; conditions: sc, subcutaneous injection, against Kleb. pneumo. 4200
Source text: as §2

`O=C([O-])Cc1nnc(SCC2=C(C(=O)[O-])N3C(=O)C(NC(=O)[C@H](O)c4ccccc4)[C@H]3SC2)o1.[Na+].[Na+]` (stereo partly drawn) [7-D-Mandelamido-3-(5-carboxymethyl-1,3,4-oxadiazol-2-ylthiomethyl)-3-cephem-4-carboxylic acid disodium salt] showed an MIC (S. aureus HH 125) of 3.1 µg/mL, an MIC (S. aureus SK 23390) of 0.8 µg/mL and an MIC (S. villaluz SK 70390) of 200 µg/mL. It also gave an MIC (Strep. faecalis HH 34358) of 50 µg/mL, an MIC (E. coli SK 12140) of 0.8 µg/mL and an MIC (E. coli HH 33779) of 3.1 µg/mL. For the same compound, the MIC (Kleb. pneumo. SK 1200) was 0.4 µg/mL, the MIC (Salmonella ATCC 12176) was 0.8 µg/mL and the MIC (Shigella HH 117) was 0.4 µg/mL. The MIC (Pseudo. aerug. HH 63) was > 200 µg/mL and the MIC ([1]; Serratia) was 50 µg/mL.

For `O=C(O)Cc1nnc(SCC2=C(C(=O)O)N3C(=O)C(NC(=O)[C@H](O)c4ccccc4)[C@H]3SC2)o1` (stereo partly drawn) [7-D-Mandelamido-3-(5-carboxymethyl-1,3,4-oxadiazol-2-ylthiomethyl)-3-cephem-4-carboxylic acid], the MIC (S. aureus HH 125; in vitro, S. aureus HH 125, read-out: MIC) was 1.6 µg/mL (≈ 3.16 µM), the MIC (S. aureus SK 23390; in vitro, S. aureus SK 23390, read-out: MIC) was 0.4 µg/mL (≈ 0.79 µM) and the MIC (S. villaluz SK 70390) was 50 µg/mL (≈ 98.7 µM). The MIC (Strep. faecalis HH 34358; in vitro, Strep. faecalis HH 34358, read-out: MIC) was 12.5 µg/mL (≈ 24.7 µM), the MIC (E. coli SK 12140) was 0.8 µg/mL (≈ 1.58 µM) and the MIC (E. coli HH 33779) was 1.6 µg/mL (≈ 3.16 µM). The MIC (Kleb. pneumo. SK 4200) was 0.8 µg/mL (≈ 1.58 µM), the MIC (Kleb. pneumo. SK 1200; in vitro, Kleb. pneumo. SK 1200, read-out: MIC) was 0.8 µg/mL (≈ 1.58 µM) and the MIC (Salmonella ATCC 12176) was 0.8 µg/mL (≈ 1.58 µM). For the same compound, the MIC (Shigella HH 117) was 0.2 µg/mL (≈ 0.395 µM), the MIC (Pseudo. aerug. HH 63) was > 200 µg/mL and the MIC ([1]; in vitro, Serratia marc. ATCC 13880, read-out: MIC) was 25 µg/mL (≈ 49.4 µM). It also gave an MIC (Proteus morgani 179) of 6.3 µg/mL (≈ 12.4 µM), an MIC [2] of 3.1 µg/mL (≈ 6.12 µM) and an MIC (Entero. cloacae HH 31254) of 1.6 µg/mL (≈ 3.16 µM). The ED50 (E. coli 12140) was 1.56 mg/kg and the ED50 (Kleb. pneumo. 4200) was 0.86 mg/kg.
